Measurements taken from US12293809B2, “Workflow for generating compounds with biological activity against a specific biological target” (INSILICO MEDICINE IP LIMITED, priority 2019, dated 2025).
Converted amounts (≈) assume the structure as drawn. Where two headings read alike, the source gives them in different places.

Tests used:
[1] = tested on: collagen α1 production in LX-2 cells; assay: LX-2 fibrosis assay, TGF-β stimulated (Western blot); assay type: cell-based, human
Experimental: (§1) Collagen α1, α-SMA, CTGF and GAPDH were traced using Western blot analysis. DMSO and SB-525334 were used as negative and positive controls, respectively.
(§2) Human hepatic stellate cells LX-2 were grown in DMEM (Invitrogen, 11960) supplied with 1% MEM Non-Essential Amino Acids (Invitrogen, 11140-050), 2% fetal bovine serum (Hyclone, SV30087.03), Penicillin (100 U/mL)-streptomycin (100 μg/mL) (Millipore, TMS-AB2-C) and 2 mM L-Glutamine (Invitrogen, 25030-001). After the cells grew in 12-well plates for 24 h, the cell culture medium was changed to the same as above except using 0.4% fetal bovine serum. After 20 h growth in the reduced serum medium, the cells were treated with indicated doses of compounds for 30 minutes. Subsequently, the cells were stimulated with 4 ng/mL TGF-β (R&D Systems, 240-B-002) for 48 h. The cells were rinsed twice with DPBS before being harvested with 100 μL RIPA buffer (Sigma, R0278) supplemented with protease inhibitor cocktail (Roche, 04693132001) at 4° C. The total protein in each sample was quantified using BCA Protein Assay Kit (Pierce™, 23227) and equal amount of total protein of each sample was subject to Western blot analysis. Antibodies used were mouse anti-α-Actin (SPM332) (sc-365970), mouse anti-CTGF (E5) (sc-365970), and mouse anti-collagen al (3G3) (sc-293182), from Santa Cruz Biotechnologies; and mouse anti-GAPDH (6C5) (EMD Millipore, MAB374).

[2] = tested on: CTGF production in LX-2 cells; assay: as above; assay type: cell-based, human
Experimental: as §1, §2

CYP2C19 = target: T1, CYP2C19 (Homo sapiens, UniProt P33261); assay: Cytochrome inhibition in HLM; assay type: in vitro ADME
T1 construct: from tissue; host or cells: human liver microsomes (HLM)
Experimental: (§3) Water used in the assay and analysis was purified by ELGA Lab purification systems. Potassium phosphate buffer (PB) in concentration of 100 mM and MgCl2 in concentration of 33 mM were used. […] Microsomes were pulled out of the −80° C. freezer to thaw on ice, labeled the date and put back to freezer immediately after using. 20 μL of the substrates solutions were added to corresponding wells. 20 μL PB were added to Blank wells. 2 μL of the test compounds and positive control working solution were added to corresponding wells. Then, HLM working solution was prepared. 158 μL of the HLM working solution was added to all wells of incubation plate. The plate was pre-warmed for about 10 min at 37° C. water bath. Then, NADPH cofactor solution was prepared. 20 μL NADPH cofactor was added to all incubation wells. The solution was mixed and incubated for 10 minutes at 37° C. water bath. At the time point, the reaction was terminated by adding 400 μL cold stop solution (200 ng/mL Tolbutamide and 200 ng/mL Labetalol in ACN). The samples were centrifuged at 4000 rpm for 20 minutes to precipitate protein. 200 μL supernatant was transferred to 100 μL HPLC water and shaken for 10 min. XL fit was used to plot the percent of vehicle control versus the test compound concentrations, and for non-linear regression analysis of the data. IC50 values were determined using 3- or 4-parameter logistic equation.

CYP2C9 = target: T2, CYP2C9 (Homo sapiens, UniProt P11712); assay: Cytochrome inhibition in HLM; assay type: in vitro ADME
T2 construct: from tissue; host or cells: human liver microsomes (HLM)
Experimental: as §3

CYP2D6 = target: T3, CYP2D6 (Homo sapiens, UniProt P10635); assay: Cytochrome inhibition in HLM; assay type: in vitro ADME
T3 construct: from tissue; host or cells: human liver microsomes (HLM)
Experimental: as §3

CYP3A4-M = target: T4, CYP3A4-M (Homo sapiens, UniProt P08684); assay: Cytochrome inhibition in HLM; assay type: in vitro ADME
T4 construct: from tissue; host or cells: human liver microsomes (HLM)
Experimental: as §3

Kinetic solubility = assay type: physicochemical; conditions: pH=7.4
Experimental: (§4) Since Compound 2 contains an imidazolidine fragment typically unusual in drug discovery we experimentally assessed key properties for this molecule. […] The inhibition activity of Compounds 1 and 2 towards a small panel of key cytochrome P450 (CYP450) isoforms was also assessed in vitro (Table 2).

Thermodynamic solubility = assay type: physicochemical
Experimental: as §4

Human DDR1b = target: T5, Human DDR1b (Homo sapiens, UniProt Q08345); assay: DDR1 autophosphorylation in collagen-stimulated U2OS cells (Western blot); assay type: cell-based; conditions: normalized to HA and GAPDH
T5 construct: expressed in transfected cells
Experimental: The amount of activated DRR1 (Y543) was measured using Western blot analysis, the obtained data were normalized to HA and GAPDH protein levels.
Human DDR1b gene with HA-tag was cloned into pCMV Tet-On vector (Clontech) and stable inducible cell lines established in U2OS were used for the IC50 test. […] The cells were detached with trypsinization and transferred to a 15-ml tube.

[3] = Microsomal stability (MLM)
Experimental: Cold acetonitrile (ACN) including 100 ng/mL Tolbutamide and 100 ng/mL Labetalol as internal standard (IS) were used for stop solution. 10 μL compound or control working solution/well was added to all plates (T0, T5, T10, T20, T30, T60, NCF60) except matrix blank. Dispense 80 μL/well microsome solution was added to every plate by Apricot, the mixture of microsome solution and compound were incubated at 37° C. for about 10 min. After pre-warming, dispense 10 μL/well NADPH regenerating system was added to every plate by Apricot to start reaction. The solution was then incubated at 37° C. 300 (μL/well) stop solution (cold in 4° C.) was added to terminate the reaction. The sampling plates were shaken for approximately 10 min. Samples were centrifuged at 4000 rpm for 20 min under 4° C. While centrifuging, 8×new 96-well plate were loaded with 300 μL HPLC water, then 100 μL supernatant was transferred and mixed for LC/MS/MS.

hDDR1 = hDDR1 (Homo sapiens, UniProt Q08345); assay: KinaseProfiler radiometric biochemical kinase assay (Eurofins); set-up: purchased Eurofins 14-942KP10
Experimental: The experimental procedures were performed by Eurofins. The activity of the molecules against hDDR1 and hDDR2 kinases was assessed using KinaseProfiler^67. […] The enzymatic reaction processed in the presence of Mg^2+ cations and ATP at room temperature for 40 minutes and terminated by addition of phosphoric acid. […] All the compounds were prepared in 100% DMSO. […] The biological evaluation of selectivity against non-target kinases was performed in Dundee Eurofins, using Scan Max Delta Panel [10 μM ATP] KinaseProfiler^68.

Chain of hDDR1 (Q08345 19-913): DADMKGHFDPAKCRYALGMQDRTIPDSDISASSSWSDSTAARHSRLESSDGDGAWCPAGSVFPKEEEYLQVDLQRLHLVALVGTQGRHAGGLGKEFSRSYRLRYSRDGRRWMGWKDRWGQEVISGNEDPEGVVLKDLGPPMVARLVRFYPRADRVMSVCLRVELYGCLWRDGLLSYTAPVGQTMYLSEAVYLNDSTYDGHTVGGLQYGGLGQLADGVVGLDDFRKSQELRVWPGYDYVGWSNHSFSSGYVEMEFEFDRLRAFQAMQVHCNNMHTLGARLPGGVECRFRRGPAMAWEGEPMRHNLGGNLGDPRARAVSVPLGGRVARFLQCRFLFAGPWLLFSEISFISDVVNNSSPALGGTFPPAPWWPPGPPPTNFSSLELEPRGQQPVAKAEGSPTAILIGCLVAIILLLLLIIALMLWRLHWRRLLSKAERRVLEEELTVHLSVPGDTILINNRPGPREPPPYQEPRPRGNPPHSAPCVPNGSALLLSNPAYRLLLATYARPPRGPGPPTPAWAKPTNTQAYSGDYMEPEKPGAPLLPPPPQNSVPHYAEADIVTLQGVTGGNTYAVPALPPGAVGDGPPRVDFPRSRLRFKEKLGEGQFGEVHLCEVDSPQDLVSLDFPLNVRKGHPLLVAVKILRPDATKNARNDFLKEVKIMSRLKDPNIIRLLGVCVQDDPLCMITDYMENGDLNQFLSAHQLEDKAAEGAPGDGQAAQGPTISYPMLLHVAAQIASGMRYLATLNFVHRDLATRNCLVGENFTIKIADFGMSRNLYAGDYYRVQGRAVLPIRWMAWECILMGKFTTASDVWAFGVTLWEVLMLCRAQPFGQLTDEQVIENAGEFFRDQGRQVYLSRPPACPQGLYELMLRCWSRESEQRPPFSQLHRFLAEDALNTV
T2 sequence (P11712 whole entry): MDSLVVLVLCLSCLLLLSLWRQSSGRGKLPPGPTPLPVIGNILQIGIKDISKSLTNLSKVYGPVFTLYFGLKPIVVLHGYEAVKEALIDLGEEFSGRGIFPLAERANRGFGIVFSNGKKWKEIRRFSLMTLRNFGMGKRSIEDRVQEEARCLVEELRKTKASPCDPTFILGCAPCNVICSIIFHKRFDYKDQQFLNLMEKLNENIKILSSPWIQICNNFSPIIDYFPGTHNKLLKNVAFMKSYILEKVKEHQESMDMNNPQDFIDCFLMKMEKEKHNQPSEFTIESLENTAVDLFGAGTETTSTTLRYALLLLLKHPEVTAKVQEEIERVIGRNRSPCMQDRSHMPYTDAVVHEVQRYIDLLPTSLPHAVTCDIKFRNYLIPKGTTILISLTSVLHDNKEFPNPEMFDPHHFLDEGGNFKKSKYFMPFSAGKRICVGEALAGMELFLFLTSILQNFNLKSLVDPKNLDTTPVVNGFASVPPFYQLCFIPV
T1 sequence (P33261 whole entry): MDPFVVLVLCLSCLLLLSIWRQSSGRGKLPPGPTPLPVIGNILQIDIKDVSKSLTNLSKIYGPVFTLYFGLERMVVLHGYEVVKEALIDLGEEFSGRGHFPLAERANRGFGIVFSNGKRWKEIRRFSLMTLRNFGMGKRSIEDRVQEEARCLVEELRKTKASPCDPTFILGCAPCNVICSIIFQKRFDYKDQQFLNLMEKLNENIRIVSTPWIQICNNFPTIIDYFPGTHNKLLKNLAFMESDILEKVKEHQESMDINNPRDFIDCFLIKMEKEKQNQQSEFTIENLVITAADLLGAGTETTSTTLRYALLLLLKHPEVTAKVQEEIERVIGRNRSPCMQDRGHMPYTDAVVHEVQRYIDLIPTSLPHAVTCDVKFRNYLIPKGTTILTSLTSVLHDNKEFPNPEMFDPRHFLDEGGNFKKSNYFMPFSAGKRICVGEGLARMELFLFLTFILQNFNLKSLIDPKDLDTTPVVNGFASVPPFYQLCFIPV
T4 sequence (P08684 whole entry): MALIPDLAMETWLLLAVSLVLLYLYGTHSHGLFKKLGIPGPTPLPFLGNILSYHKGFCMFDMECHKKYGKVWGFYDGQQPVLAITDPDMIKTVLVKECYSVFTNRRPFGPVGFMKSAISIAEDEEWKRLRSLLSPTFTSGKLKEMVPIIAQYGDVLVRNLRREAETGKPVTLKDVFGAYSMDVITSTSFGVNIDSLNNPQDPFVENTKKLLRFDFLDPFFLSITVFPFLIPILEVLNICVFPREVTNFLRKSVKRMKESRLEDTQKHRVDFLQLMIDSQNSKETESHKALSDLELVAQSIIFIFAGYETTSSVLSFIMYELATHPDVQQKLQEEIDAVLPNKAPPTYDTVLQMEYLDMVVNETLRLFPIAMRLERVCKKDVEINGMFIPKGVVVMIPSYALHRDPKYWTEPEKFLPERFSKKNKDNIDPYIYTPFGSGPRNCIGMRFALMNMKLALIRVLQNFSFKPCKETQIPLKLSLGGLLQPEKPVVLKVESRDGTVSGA
T3 sequence (P10635 whole entry): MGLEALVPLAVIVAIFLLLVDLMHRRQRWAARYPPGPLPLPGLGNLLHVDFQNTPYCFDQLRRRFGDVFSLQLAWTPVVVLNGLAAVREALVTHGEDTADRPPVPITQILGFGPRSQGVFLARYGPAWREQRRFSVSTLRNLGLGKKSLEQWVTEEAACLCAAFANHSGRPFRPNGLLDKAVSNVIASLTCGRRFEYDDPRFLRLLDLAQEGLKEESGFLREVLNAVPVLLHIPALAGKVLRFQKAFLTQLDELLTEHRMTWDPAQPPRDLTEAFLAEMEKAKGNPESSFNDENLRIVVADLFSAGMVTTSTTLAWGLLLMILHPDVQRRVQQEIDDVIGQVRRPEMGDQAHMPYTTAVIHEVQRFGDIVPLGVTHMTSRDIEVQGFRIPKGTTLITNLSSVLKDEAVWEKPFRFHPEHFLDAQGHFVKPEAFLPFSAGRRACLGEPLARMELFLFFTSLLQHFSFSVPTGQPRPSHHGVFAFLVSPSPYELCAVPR
T5 sequence (Q08345 19-913): as the sequence (Q08345 19-913) above

SMILES | IC50 ([1]; TGF-β stimulated LX-2 cells, normalized to GAPDH, read-out: IC50, collagen production) [µM] | effect in CTGF assay ([2]; LX-2 cells) | IC50 (CYP2C19) [µM] | IC50 (CYP2C9) [µM] | IC50 (CYP2D6) [µM] | IC50 (CYP3A4-M) [µM] | kinetic solubility (Kinetic solubility) [µg/mL] | IC50 ([1]; LX-2 cells, read-out: IC50, collagen assay) [µM] | CTGF production prevented ([2]; 14 nM) [%] | thermodynamic solubility (Thermodynamic solubility) [µg/mL] | IC50 (Human DDR1b) [µM] | CLint(mic) ([3]; MLM 0.5) | T1/2 ([3]; mouse, microsomes) [min] | Remaining (*NCF = 60 min) ([3]; mouse, microsomes, 1 h) [%] | Remaining (T = 60 min) ([3]; mouse, microsomes, 1 h) [%] | activity against DDR1 kinase (in words) (hDDR1) | LE** = 1.4*(pIC50)/N (hDDR1; N number of heavy atoms) | IC50 (hDDR1; read-out: IC50, inhibition of DDR1 activity) [µM]
Cc1ccc2c(Nc3cccc(C(F)(F)F)c3)noc2c1C#Cc1cnc2cccnn12 [Compound 1] | 0.013 | did not show the inhibition effect | > 50 | > 50 | > 50 | > 50 |  |  |  |  |  |  |  |  |  |  |  | 
O=C(Nc1cccc(C(=O)N2CCN(c3ccnc4[nH]ccc34)C2)c1)c1cccc(C(F)(F)F)c1 [Compound 2] |  |  | 6.56 | 2.7 | 6.97 | 7.36 | 1.09 (≈ 2.27 µM) | > 10 | 43 | < 0.59 | 0.0058 | 91.8 | 15.1 | 86.0 | 5.3 | low nanomolar range | 0.31 | 0.021
